Assay [1] concerns the target T1, Neuropeptide Y receptor type 2 (Homo sapiens, UniProt P49146).
T1 sequence (P49146 whole entry): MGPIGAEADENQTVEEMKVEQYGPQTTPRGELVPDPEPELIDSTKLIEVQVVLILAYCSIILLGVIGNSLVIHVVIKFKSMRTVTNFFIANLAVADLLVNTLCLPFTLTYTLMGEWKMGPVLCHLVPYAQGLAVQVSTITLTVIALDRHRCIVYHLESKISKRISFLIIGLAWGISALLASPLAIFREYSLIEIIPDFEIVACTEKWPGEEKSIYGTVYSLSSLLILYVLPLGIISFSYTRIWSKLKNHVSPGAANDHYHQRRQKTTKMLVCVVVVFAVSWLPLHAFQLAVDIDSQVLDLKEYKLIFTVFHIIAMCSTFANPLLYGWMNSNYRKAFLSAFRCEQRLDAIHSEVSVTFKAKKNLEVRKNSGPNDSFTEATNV
Nature of the assay: IC50 for human NPY-Y2 blockade – cell-based, counter-screen for NPY-Y1 antagonist project, dose response (AID 1278). Format: functional.

Assay [2] concerns the target T2, Neuropeptide Y receptor type 1 (Homo sapiens, UniProt P25929).
T2 sequence (P25929 whole entry): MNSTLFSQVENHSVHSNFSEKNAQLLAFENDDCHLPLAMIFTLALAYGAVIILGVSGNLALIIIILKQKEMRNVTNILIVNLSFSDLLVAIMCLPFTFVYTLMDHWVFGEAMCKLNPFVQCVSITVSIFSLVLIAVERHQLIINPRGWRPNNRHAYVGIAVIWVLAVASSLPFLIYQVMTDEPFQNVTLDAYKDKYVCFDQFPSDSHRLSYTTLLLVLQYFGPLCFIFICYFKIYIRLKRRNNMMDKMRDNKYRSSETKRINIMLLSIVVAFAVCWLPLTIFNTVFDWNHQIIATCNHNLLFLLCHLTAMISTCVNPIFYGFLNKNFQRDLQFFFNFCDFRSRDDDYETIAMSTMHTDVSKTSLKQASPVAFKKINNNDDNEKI
Nature of the assay: IC50 of human NPY-Y1 blockers – cell-based, dose response (AID 1277). Format: functional.

The target in assay [3] is ATP-sensitive inward rectifier potassium channel 1 (Homo sapiens, UniProt P48048). Nature of the assay: Kir1.1 channel inhibitor analog potency – cell-based, thallium flux, analog library, SAR follow-up (AID 435017). Format: functional.
Chain of ATP-sensitive inward rectifier potassium channel 1 (P48048 whole entry): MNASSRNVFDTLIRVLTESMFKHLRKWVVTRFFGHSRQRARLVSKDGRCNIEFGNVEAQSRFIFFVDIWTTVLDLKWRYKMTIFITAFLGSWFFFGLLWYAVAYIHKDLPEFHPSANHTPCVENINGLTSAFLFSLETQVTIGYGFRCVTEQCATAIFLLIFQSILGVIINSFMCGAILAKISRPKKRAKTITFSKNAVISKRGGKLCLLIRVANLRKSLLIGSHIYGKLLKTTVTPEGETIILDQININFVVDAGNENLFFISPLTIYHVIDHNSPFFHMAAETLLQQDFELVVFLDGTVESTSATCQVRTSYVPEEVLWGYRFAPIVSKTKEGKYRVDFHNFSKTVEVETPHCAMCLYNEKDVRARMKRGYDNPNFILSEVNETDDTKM
Assay [4] addresses T3, RNA-binding protein pos-1 (Caenorhabditis elegans, UniProt G5EF15).
T3 sequence (G5EF15 whole entry): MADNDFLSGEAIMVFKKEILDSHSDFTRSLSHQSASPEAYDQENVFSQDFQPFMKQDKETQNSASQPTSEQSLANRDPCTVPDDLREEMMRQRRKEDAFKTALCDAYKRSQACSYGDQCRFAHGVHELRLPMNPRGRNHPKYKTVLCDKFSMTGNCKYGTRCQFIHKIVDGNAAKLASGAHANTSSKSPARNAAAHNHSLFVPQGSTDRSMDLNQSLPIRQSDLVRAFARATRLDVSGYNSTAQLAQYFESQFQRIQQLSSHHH
Nature of the assay: disruptors of C. elegans POS-1 RNA interaction – biochemical, fluorescence polarization, dose response (AID 1964).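 Also: purified POS-1 fused to maltose binding protein made in E. coli; potency of compounds blocking POS-1 binding to fluorescent RNA.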 On the technique in general: Fluorescence polarisation rises when a labelled molecule tumbles more slowly, as on binding a larger partner.

The target of assay [5] is T4, Bcl-2-related protein A1 (Mus musculus, UniProt Q07440).
T4 sequence (Q07440 whole entry): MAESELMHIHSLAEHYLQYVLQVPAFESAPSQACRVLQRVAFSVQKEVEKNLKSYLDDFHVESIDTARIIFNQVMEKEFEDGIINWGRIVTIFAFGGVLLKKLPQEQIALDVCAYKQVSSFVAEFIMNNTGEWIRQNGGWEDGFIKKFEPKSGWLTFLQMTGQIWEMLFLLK
Nature of the assay: displacement of Bid BH3 peptide from Bfl-1 – biochemical, fluorescence polarization, FITC-Bid, mouse, primary screen (AID 432).

Assay [6] concerns the target T5, Zinc finger protein mex-5 (Caenorhabditis elegans, UniProt Q9XUB2).
T5 sequence (Q9XUB2 whole entry): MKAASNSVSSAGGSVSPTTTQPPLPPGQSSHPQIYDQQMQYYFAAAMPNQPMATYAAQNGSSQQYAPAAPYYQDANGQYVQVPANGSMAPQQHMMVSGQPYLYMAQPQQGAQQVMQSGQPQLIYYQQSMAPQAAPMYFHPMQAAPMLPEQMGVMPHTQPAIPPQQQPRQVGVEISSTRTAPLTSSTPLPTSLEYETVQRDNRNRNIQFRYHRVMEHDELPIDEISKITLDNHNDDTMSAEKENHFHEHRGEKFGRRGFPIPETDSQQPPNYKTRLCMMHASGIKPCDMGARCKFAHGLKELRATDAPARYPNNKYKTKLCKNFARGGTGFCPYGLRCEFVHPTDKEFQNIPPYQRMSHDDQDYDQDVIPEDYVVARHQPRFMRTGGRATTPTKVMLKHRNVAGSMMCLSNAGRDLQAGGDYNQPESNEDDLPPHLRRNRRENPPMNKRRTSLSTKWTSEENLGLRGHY
The experiment in a line: potency of MEX-5 RNA-binding blockers – biochemical, C. elegans, fluorescence polarization, dose response (AID 1960).

In assay [7] the target is T4, Bcl-2-related protein A1. Nature of the assay: small-molecule antagonists of Bfl-1/BH3 interaction – biochemical, TR-FRET, mouse Bfl-1, confirmation (AID 621).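 Also: TR-FRET binding of GST-Bfl-1 to FITC-labelled Bid peptide via terbium antibody.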
For a further assay, the target named is 14-3-3 protein gamma (Homo sapiens, UniProt P61981). Nature of the assay: modulators of 14-3-3 gamma client binding – dose response (AID 711). Type of assay: functional.
Chain of 14-3-3 protein gamma (P61981 whole entry, the tested form may be a part): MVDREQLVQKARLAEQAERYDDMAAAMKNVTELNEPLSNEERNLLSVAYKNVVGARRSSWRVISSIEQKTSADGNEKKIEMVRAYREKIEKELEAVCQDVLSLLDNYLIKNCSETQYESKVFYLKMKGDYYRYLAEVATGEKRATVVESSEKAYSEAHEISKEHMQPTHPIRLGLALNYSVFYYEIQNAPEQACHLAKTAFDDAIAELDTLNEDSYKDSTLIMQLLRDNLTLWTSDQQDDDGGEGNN
Assay [8] can be described thus: CCR5-tropic HIV-1 fusion blockers – cell-based, CCR5-tropic Env, dose response (AID 2279). Format: functional.
The target in another assay is Genome polyprotein (Hepatitis C virus, UniProt Q2Q167). The experiment in a line: disruption of hepatitis C core self-association – biochemical, TR-FRET, dose response (AID 2159).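 Also: blocks dimerization of HCV core protein measured by TR-FRET between tagged core106 pairs.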 More on the design: species or system Hepacivirus hominis. (TR-FRET usually uses a lanthanide donor and a delayed reading to cut background.)
Chain of Genome polyprotein (Q2Q167 whole entry): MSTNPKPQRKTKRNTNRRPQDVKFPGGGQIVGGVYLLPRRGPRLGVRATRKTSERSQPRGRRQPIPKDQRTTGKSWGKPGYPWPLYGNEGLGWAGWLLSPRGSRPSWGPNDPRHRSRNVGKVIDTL
Assay [9] concerns the target Serine/threonine-protein phosphatase PP1-alpha catalytic subunit (Homo sapiens, UniProt P62136). The experiment in a line: inhibition of protein phosphatase 1 activity – biochemical, fluorescence, dose response (AID 2403).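 Also: phosphatase turnover of OMFP into fluorescent 3-O-methylfluorescein.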
In assay [10] the target is Serine/threonine-protein phosphatase (Homo sapiens, UniProt Q9BPW0). Nature of the assay: Counterscreen for inhibitors of PP1: fluorescence-based biochemical high throughput dose response assay to identify inhibitors of Protein Phosphatase 5 (PP5). [Related pubchem assays: 2034 (Summary (PP5 inhibitors)), 1987 (PP5 inhibitors in singlate), 2235 (PP1 inhibitors in singlate)].
Chain of Serine/threonine-protein phosphatase (Q9BPW0 whole entry): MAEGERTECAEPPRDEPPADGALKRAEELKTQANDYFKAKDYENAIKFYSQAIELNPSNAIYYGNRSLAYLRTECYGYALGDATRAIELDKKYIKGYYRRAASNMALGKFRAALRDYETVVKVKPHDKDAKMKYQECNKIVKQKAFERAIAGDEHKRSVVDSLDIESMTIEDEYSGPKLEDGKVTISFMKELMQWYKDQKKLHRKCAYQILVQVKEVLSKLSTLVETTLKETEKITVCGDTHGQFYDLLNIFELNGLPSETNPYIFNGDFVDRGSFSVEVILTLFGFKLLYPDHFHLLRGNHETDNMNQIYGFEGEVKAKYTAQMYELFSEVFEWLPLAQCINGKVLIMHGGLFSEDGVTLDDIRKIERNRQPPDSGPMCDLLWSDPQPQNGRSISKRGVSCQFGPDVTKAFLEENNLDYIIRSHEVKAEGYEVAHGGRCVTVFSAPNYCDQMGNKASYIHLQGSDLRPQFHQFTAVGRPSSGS

Assay [11] deals with 26S proteasome non-ATPase regulatory subunit 14 (Homo sapiens, UniProt O00487). Nature of the assay: inhibition of proteasome subunit RPN11 – biochemical, fluorescence polarization, uHTS hits, confirmation (AID 602368). Type of assay: functional.
Chain of 26S proteasome non-ATPase regulatory subunit 14 (O00487 whole entry): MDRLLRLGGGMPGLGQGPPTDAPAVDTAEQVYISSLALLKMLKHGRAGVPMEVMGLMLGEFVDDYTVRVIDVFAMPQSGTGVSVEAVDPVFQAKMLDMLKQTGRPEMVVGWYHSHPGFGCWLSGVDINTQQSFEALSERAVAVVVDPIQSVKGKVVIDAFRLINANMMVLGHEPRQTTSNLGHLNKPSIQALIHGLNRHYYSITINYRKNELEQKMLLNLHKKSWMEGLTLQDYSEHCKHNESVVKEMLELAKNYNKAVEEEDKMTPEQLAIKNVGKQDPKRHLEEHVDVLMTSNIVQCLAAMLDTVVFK
In assay [12] the target is 72 kDa type IV collagenase (Homo sapiens, UniProt P08253). Nature of the assay: Dose Response validation of uHTS RPN11 inhibitor hits using a MMP-2 Fluorescence assay. Type of assay: functional.
Chain of 72 kDa type IV collagenase (P08253 whole entry): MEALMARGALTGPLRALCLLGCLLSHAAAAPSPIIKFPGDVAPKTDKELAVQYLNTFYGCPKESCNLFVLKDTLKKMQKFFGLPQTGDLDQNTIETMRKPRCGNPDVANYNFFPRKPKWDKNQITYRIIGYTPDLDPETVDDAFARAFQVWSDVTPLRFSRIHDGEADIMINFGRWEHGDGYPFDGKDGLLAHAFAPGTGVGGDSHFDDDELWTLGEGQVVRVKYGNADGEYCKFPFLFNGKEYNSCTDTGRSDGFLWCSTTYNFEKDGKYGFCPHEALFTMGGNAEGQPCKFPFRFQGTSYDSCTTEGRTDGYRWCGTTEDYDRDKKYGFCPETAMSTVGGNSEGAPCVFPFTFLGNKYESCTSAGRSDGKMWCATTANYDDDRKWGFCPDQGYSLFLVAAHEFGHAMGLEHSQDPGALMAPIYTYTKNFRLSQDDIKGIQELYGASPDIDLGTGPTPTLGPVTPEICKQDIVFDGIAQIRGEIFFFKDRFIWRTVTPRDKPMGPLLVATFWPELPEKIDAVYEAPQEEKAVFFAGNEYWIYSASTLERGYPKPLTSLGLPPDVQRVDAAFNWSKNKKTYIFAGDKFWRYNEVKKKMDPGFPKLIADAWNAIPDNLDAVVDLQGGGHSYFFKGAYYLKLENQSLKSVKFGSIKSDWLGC
The target in another assay is Prothrombin (Bos taurus, UniProt P00735). Nature of the assay: thrombin protease inhibitors – biochemical, fluorescence polarization, uHTS hits, dose response (AID 602369). Format: functional.
The target in assay [13] is T6, Small ubiquitin-related modifier 1 (Homo sapiens, UniProt P63165). Nature of the assay: SUMO1 protein interaction blockers, potency – biochemical, fluorescence polarization, uHTS hits, dose response (AID 624382). Type of assay: functional. The conditions noted are these: read-out: IC50_Mean.
T6 sequence (P63165 whole entry): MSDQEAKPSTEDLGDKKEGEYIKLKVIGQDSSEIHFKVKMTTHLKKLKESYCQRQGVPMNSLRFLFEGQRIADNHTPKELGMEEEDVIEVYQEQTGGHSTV
In assay [14] the target is T6, Small ubiquitin-related modifier 1. The experiment in a line: SUMO1 protein-protein binding blockers, potency – biochemical, FRET, dose response (AID 624383). Type of assay: functional. Conditions: read-out: IC50_Mean.

What is called EC50 is the concentration giving half of the maximal effect.

Active and inactive are the calls of the source.

Chain of Serine/threonine-protein phosphatase PP1-alpha catalytic subunit (P62136 whole entry): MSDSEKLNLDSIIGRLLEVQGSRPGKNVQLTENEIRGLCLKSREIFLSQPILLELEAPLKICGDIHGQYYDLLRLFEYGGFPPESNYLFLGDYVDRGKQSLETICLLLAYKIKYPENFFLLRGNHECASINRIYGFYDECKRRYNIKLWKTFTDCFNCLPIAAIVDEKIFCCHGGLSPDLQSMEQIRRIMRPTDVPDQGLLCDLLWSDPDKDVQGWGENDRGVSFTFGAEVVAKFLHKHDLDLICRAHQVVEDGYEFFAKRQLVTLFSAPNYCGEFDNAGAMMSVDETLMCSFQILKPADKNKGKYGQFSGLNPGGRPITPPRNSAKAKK

In the case of `CNCc1cc(Cl)cc(OC)c1OC(C)C`, the IC50 in [1] and in [2] was > 35 µM (not active) throughout.
Consider `O=[N+]([O-])c1ccc(CN2CCOCCOCCN(Cc3ccc([N+](=O)[O-])cc3)CCOCC2)cc1`, for which the IC50 in assay [3] was 0.273 µM (active).
As to `Cc1ccc(C2C3CN(C(C)C)CC=C3C(C#N)=C(N)C2(C#N)C#N)cc1` (stereo not drawn), the EC50 in [4] is 7.15 µM (inconclusive); in assay [6] it was 8.29 µM (inconclusive). The IC50 on Bcl-2-related protein A1 [5] is given as > 100 µM (not active); against Bcl-2-related protein A1 [7] it was > 100 µM (not active); at 14-3-3 protein gamma, > 50 µM (not active).
As to `COc1ccc(C(=O)/C=C/c2cccc(OCc3ccccc3)c2)cc1CSCC(=O)O`, the IC50 in assay [8] is 18.7 µM (active).
As to `CCOc1ccc(NC(=O)c2ccc(NC(=O)COC(=O)c3ccc(NC(=O)CC#N)cc3)cc2)cc1`, the IC50 was > 49.8 µM (not active) at Genome polyprotein; 6.8 µM (active) in assay [9]; > 67 µM (not active) in assay [10]; 15.9 µM (active) in [11]; > 100 µM (inactive) in assay [12]; 55.4 µM (active) at Prothrombin. Moreover, the IC50 in [13] was > 66.6 µM (inactive); in assay [14], 2.11 µM (active).
For `CCOc1ccc2nc(NC(=O)C(CCSC)NS(=O)(=O)c3cccs3)sc2c1` (stereo not drawn), in “cells”, the IC50 was 2.48 µM (active).
